# Measured values published in patent publication US10710994B2, “Oxadiazole transient receptor potential channel inhibitors” (Genentech, Inc., priority 2018, dated 2020).
# Like-named read-outs stand apart in the source and are kept apart here.
# Biological target: human TRPA1 channel (Homo sapiens (Human), UniProt O75762)
# Experiment: hTRPA1 CHO Ca2+ FLIPR Tetra assay: block of cinnamaldehyde induced calcium influx
# Format: cell-based
# Details: CHO cells expressing TRPA1, Hill coefficient fixed to 1.5
# Experimental: CHO cells expressing TRPA1 were plated into 384-well plates, incubated overnight at 37° C., and loaded with BD calcium indicator dye for 1 hr at 37° C. followed by 15 minutes at room temperature. The assay buffer was Hank's Balanced Salt Solution (HBSS) containing 20 mM HEPES (pH readjusted to 7.4) along with 0.02% BSA.
# Following dye load and plate cool down, compounds were added to the cells using FLIPR Tetra. Plates were then incubated with compounds for 10 minutes or 90 minutes at room temperature prior to adding agonist. Following this incubation, about an EC80 concentration of cinnamaldehyde […] was added to active the channels and block of cinnamaldehyde induced calcium influx was measured.
# Fixing the Hill coefficient will generally reduce variability of the IC50 determination. The IC50 results were individually examined to make sure the MIN and MAX points were set correctly prior to validation of the results.
# [1] = read-out: hTRPA1 IC50 10 min, 10 minutes incubation with compound before cinnamaldehyde (about EC80)
# [2] = read-out: hTRPA1 IC50 90 min, 90 minutes incubation with compound before cinnamaldehyde (about EC80)
# [3] = hTRPA1 IC50 10 min, 10 minutes incubation with compound before cinnamaldehyde (about EC80)
# [4] = hTRPA1 IC50 90 min, 90 minutes incubation with compound before cinnamaldehyde (about EC80)
# Chain of human TRPA1 channel (O75762 whole entry): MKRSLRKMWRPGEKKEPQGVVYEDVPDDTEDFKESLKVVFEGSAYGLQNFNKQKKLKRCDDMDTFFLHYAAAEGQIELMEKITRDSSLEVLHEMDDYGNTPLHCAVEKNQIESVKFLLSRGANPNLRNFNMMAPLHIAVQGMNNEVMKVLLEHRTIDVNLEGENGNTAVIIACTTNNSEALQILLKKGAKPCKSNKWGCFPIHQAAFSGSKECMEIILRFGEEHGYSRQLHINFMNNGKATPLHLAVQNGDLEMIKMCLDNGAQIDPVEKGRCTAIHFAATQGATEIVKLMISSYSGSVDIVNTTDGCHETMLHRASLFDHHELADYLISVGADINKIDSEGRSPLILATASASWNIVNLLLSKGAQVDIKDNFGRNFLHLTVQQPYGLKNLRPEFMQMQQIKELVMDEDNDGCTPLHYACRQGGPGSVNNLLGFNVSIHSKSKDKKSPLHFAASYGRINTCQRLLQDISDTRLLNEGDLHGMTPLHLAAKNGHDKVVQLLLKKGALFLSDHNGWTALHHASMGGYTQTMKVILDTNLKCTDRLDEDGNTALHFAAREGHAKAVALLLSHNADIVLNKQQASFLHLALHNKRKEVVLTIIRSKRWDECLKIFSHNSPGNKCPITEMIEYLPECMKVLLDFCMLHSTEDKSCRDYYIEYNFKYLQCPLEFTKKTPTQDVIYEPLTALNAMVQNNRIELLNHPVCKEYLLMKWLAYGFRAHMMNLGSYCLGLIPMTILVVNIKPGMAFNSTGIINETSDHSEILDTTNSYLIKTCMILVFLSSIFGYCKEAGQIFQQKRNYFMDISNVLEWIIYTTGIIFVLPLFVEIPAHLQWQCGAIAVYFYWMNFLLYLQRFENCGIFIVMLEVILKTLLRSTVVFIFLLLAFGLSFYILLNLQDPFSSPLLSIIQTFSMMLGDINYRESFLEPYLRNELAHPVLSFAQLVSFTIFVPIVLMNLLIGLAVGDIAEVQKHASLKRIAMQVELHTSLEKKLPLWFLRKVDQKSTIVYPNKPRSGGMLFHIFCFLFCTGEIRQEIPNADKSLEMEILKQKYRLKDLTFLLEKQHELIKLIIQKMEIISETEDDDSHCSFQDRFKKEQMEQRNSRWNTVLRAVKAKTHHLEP
Compound,IC50 [1] [nM],IC50 [2] [nM],IC50 [3] [nM],IC50 [4] [nM]
"Cc1c(=O)ncn2cnn(Cc3nc([C@@H]4CO[C@@H](c5ccc(Cl)cc5)C4)no3)c(=O)c12 [Example 47, 2-((3-((3R,5R)-5-(4-chlorophenyl)tetra-hydrofuran-3-yl)-1,2,4-oxadiazol-5-yl)methyl)-9-methyl-2H-pyrimido[1,6-d][1,2,4] triazine-1,8-dione]",332,240,,
"Nc1nc2ncccc2c(=O)n1Cc1nc([C@@H]2CO[C@@H](c3ccc(F)cc3)C2)no1 [Example 89, 2-amino-3-((3-((3R,5R)-5-(4-fluorophenyl)tetrahydrofuran-3-yl)-1,2,4-oxadiazol-5-yl)methyl) pyrido[2,3-d]pyrimidin-4(3H)-one]",18.7,2.9,,
"Cn1cnc2ccn(Cc3nc([C@@H]4CO[C@@H](c5ccc(F)cc5)C4)no3)c(=O)c21 [Example 56, 5-((3-((3R,5R)-5-(4-fluorophenyl)tetrahydro-furan-3-yl)-1,2,4-oxadiazol-5-yl)methyl)-3-methyl-3,5-dihydro-4H-imidazo[4,5-c]pyridin-4-one]",6.76,1.9,,
"Cn1cnc2ncn(Cc3nc([C@@H]4CO[C@@H](c5ccc(-c6ccccc6)cc5)C4)no3)c(=O)c21 [Example 30, 1-((3-((3R,5R)-5-[(1,1′-biphenyl]-4-yl)tetrahydrofuran-3-yl)-1,2,4-oxadiazol-5-yl)methyl)-7-methyl-1,7-dihydro-6H-purin-6-one]",623,370,,
"Cn1cnc2c(C#N)nn(Cc3nc([C@@H]4CO[C@@H](c5ccc(Cl)cc5)C4)no3)c(=O)c21 [Example 131, 6-((3-((3R,5R)-5-(4-chlorophenyl)tetrahydro-furan-3-yl)-1,2,4-oxadiazol-5-yl)methyl)-1-methyl-7-oxo-6,7-dihydro-1H-imidazo[4,5-d]pyridazine-4-carbonitrile]",7.42,3.1,,
"Cn1cnc2ncn(Cc3nc([C@@H]4CO[C@@H](c5ccc(Br)cc5)C4)no3)c(=O)c21 [Example 29, 1-((3-((3R,5R)-5-(4-bromophenyl)tetra-hydrofuran-3-yl)-1,2,4-oxadiazol-5-yl)methyl)-7-methyl-1,7-dihydro-6H-purin-6-one]",7.83,1.8,,
"Cc1ccnc2ncn(Cc3nc([C@@H]4CO[C@@H](c5ccc(Cl)cc5)C4)no3)c(=O)c12 [Example 54, 3-((3-((3R,5R)-5-(4-chlorophenyl)tetrahydro-furan-3-yl)-1,2,4-oxadiazol-5-yl)methyl)-5-methylpyrido[2,3-d] pyrimidin-4(3H)-one]",2.14,0.73,,
"Cc1nc2ncn(C)c2c(=O)n1Cc1nc([C@@H]2CO[C@@H](c3ccc(F)cc3)C2)no1 [Example 137, 1-((3-((3R,5R)-5-(4-fluorophenyl)tetrahydro-furan-3-yl)-1,2,4-oxadiazol-5-yl)methyl)-2,7-dimethyl-1,7-dihydro-6H-purin-6-one]",64.1,13,,
"Cc1cncc2ncn(Cc3nc([C@@H]4CO[C@@H](c5ccc(Cl)cc5)C4)no3)c(=O)c12 [Example 44, 3-((3-((3R,5R)-5-(4-chlorophenyl)tetrahydro-furan-3-yl)-1,2,4-oxadiazol-5-yl)methyl)-5-methylpyrido[3,4-d]pyrimidin-4(3H)-one]",3.2,1.3,,
"Cn1c(=O)c2c(ncn2Cc2nc([C@@H]3CO[C@@H](c4ccc(Cl)cc4)C3)no2)n(C)c1=O [Example 50, 7-((3-((3R,5R)-5-(4-chlorophenyl)tetrahydro-furan-3-yl)-1,2,4-oxadiazol-5-yl)methyl)-1,3-dimethyl-3,7-dihydro-1H-purine-2,6-dione]",50.8,57,,
"Cn1cnc2c(C#N)nn(Cc3nc([C@@H]4CO[C@@H](c5ccc(Cl)cc5)C4)no3)c2c1=O [Example 23, 1-((3-((3R,5R)-5-(4-chlorophenyl)tetrahydro-furan-3-yl)-1,2,4-oxadiazol-5-yl)methyl)-6-methyl-7-oxo-6,7-dihydro-1H-pyrazolo[4,3-d]pyrimidine-3-carbonitrile]",45.7,24,,
"Cc1cnn2ncn(Cc3nc([C@@H]4CO[C@@H](c5ccc(Cl)cn5)C4)no3)c(=O)c12 [Example 148, 3-((3-((3R,5R)-5-(5-chloropyridin-2-yl)tetrahydrofuran-3-yl)-1,2,4-oxadiazol-5-yl)methyl)-5-methylpyrazolo[5,1-f] [1,2,4]triazin-4(3H)-one]",21.3,14,,
"Cc1ccnc2nc(N)n(Cc3nc([C@@H]4CO[C@@H](c5ccc(F)cc5)C4)no3)c(=O)c12 [Example 133, 2-amino-3-((3-((3R,5R)-5-(4-fluorophenyl)tetra-hydrofuran-3-yl)-1,2,4-oxadiazol-5-yl)methyl)-5-methylpyrido[2,3-d] pyrimidin-4(3H)-one]",13.4,1.4,,
"Cc1nc2[nH]c(=O)n(C)c2c(=O)n1Cc1nc([C@@H]2CO[C@@H](c3ccc(Cl)cc3)C2)no1 [Example 111, 1-((3-((3R,5R)-5-(4-chlorophenyl)tetrahydro-furan-3-yl)-1,2,4-oxadiazol-5-yl)methyl)-2,7-dimethyl-7,9-dihydro-1H-purine-6,8-dione]",85.8,34,,
"CN1CCc2c(ncn(Cc3nc([C@@H]4CO[C@@H](c5ccc(Cl)cc5)C4)no3)c2=O)C1 [Example 88, 3-((3-((3R,5R)-5-(4-chlorophenyl)tetrahydro-furan-3-yl)-1,2,4-oxadiazol-5-yl)methyl)-7-methyl-5,6,7,8-tetrahydropyrido [3,4-d]pyrimidin-4(3H)-one]",2720,450,,
"Cn1cnc2ncn(Cc3nc([C@@H]4CO[C@@](C)(c5ccc(Cl)cc5)C4)no3)c(=O)c21 [Example 42, 1-((3-((3R,5R)-5-(4-chlorophenyl)-5-methyltetrahydrofuran-3-yl)-1,2,4-oxadiazol-5-yl)methyl)-7-methyl-1,7-dihydro-6H-purin-6-one]",3710,2200,,
"Cn1cnc2ncn(Cc3nc([C@@H]4CO[C@@H](c5ccc6ccccc6c5)C4)no3)c(=O)c21 [Example 33, 7-methyl-1-((3-((3R,5R)-5-(naphthalen-2-yl)tetrahydrofuran-3-yl)-1,2,4-oxadiazol-5-yl)methyl)-1,7-dihydro-6H-purin-6-one]",4.09,2.4,,
"Nc1nc2nccnc2n1Cc1nc([C@@H]2CO[C@@H](c3ccc(Cl)cc3)C2)no1 [Example 112, 1-((3-((3R,5R)-5-(4-chlorophenyl)tetrahydro-furan-3-yl)-1,2,4-oxadiazol-5-yl)methyl)-1H-imidazo[4,5-b] pyrazin-2-amine]",10.8,3.8,,
"Nc1nccc2c(=O)n(Cc3nc([C@@H]4CO[C@@H](c5ccc(Cl)cc5)C4)no3)cnc12 (racemic) [Example 108, 8-amino-3-[[3-[rac-(3R,5R)-5-(4-chlorophenyl)tetrahydro-furan-3-yl]-1,2,4-oxadiazol-5-yl]methyl]pyrido[3,4-d] pyrimidin-4-one]",,,76.9,57
"Cc1nc(Cl)n2ncn(Cc3nc([C@@H]4CO[C@@H](c5ccc(Cl)cc5)C4)no3)c(=O)c12 (racemic) [Example 93, 7-chloro-5-methyl-3-[[3-[rac-(3R,5R)-5-(4-chlorophenyl)tetrahydro-furan-3-yl]-1,2,4-oxadiazol-5-yl]methyl] imidazo[5,1-f][1,2,4] triazin-4-one]",,,,13
"[2H]c1nc2nc(C)n(Cc3nc([C@@H]4CO[C@@H](c5ccc(Cl)cc5)C4)no3)c(=O)c2n1C [Example 110, 1-((3-((3R,5R)-5-(4-chlorophenyl)tetrahydro-furan-3-yl)-1,2,4-oxadiazol-5-yl)methyl)-2,7-dimethyl-1,7-dihydro-6H-purin-6-one-8-d]",,,9.32,3.9
"Cc1cncc2ncn(Cc3nc([C@@H]4CO[C@@H](c5ccc(F)cc5)C4)no3)c(=O)c12 [Example 67, 3-((3-((3R,5R)-5-(4-fluorophenyl)tetrahydro-furan-3-yl)-1,2,4-oxadiazol-5-yl)methyl)-5-methylpyrido[3,4-d] pyrimidin-4(3H)-one]",10.7,1.2,,
"O=c1c2cccnc2ncn1Cc1nc([C@@H]2CO[C@@H](c3ccc(Cl)cc3)C2)no1 [Example 25, 3-((3-((3R,5R)-5-(4-chlorophenyl)tetrahydro-furan-3-yl)-1,2,4-oxadiazol-5-yl)methyl)pyrido[2,3-d]pyrimidin-4(3H)-one]",6.55,5.7,,
"N#Cc1cnn2ncn(Cc3nc([C@@H]4CO[C@@H](c5ccc(Cl)cc5)C4)no3)c(=O)c12 [Example 115, 3-((3-((3R,5R)-5-(4-chlorophenyl)tetrahydro-furan-3-yl)-1,2,4-oxadiazol-5-yl)methyl)-4-oxo-3,4-dihydro-pyrazolo[5,1-f][1,2,4] triazine-5-carbonitrile]",94.9,40,,
